One block for each compound: values may come before it. Non-standard residues stand in square brackets, D forms with d. Residues, ends and D or L forms follow the SMILES beside them. *: point of attachment. Benzoyl(4-OPh) = O=C(c1ccc(Oc2ccccc2)cc1)*; Lys(Et2) = CCN(CC)CCCC[C@H](N)C(=O)O; d(aIle) = CC[C@H](C)[C@@H](N)C(=O)O; Gly(cPent) = N[C@H](C(=O)O)C1CCCC1; NH(propargyl) = C#CCN*
Columns and labels:
[1] = target: Bromodomain-containing protein 4 (Homo sapiens, UniProt O60885); assay: Affinity Biochemical interaction: (TR-FRET) EUB0002661a BRD4; format: functional; design: mode of action Inhibitor, recommended concentration 1 uM
[2] = target: Dual specificity calcium/calmodulin-dependent 3',5'-cyclic nucleotide phosphodiesterase 1A (Homo sapiens, UniProt P54750); assay: Affinity Biochemical interaction: (inhibition of [3H]cGMP cleavage, scintillation proximity assay) EUB0002562a PDE1A; format: functional; design: mode of action Inhibitor, recommended concentration 1 uM
[3] = target: T1, Chromobox protein homolog 8 (Homo sapiens, UniProt Q9HC52); assay: Affinity Biochemical interaction: (Fluorescence polarisation (fluorescein conjugated)) EUB0002326a CBX8; format: functional; design: mode of action Inhibitor, recommended concentration 1 uM
T1 sequence (Q9HC52 whole entry): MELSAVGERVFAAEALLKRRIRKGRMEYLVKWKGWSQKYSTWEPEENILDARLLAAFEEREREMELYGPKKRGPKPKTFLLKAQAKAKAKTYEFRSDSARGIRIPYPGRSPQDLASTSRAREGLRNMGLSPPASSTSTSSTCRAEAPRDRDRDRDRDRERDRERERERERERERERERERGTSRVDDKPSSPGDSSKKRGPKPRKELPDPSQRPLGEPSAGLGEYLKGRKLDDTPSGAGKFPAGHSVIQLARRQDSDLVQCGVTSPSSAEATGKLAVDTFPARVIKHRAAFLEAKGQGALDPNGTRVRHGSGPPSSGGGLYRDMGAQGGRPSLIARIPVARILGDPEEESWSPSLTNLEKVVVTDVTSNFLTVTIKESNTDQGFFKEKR

[4] = target: T1, Chromobox protein homolog 8; assay: Affinity Biochemical interaction: (MST (fluorescein-conjugated)) EUB0002326a CBX8; design: mode of action Inhibitor, recommended concentration 1 uM
[5] = target: T1, Chromobox protein homolog 8; assay: Affinity Biochemical interaction: (Thermal Shift Assay) EUB0002326a CBX8; design: mode of action Inhibitor, recommended concentration 1 uM
[6] = target: Ubiquitin carboxyl-terminal hydrolase 14 (Homo sapiens, UniProt P54578)
[7] = target: cGMP-dependent 3',5'-cyclic phosphodiesterase (Homo sapiens, UniProt O00408); assay: Affinity Biochemical interaction: (inhibition of enzyme activity with [3H]cGMP or [3H]cAMP as the substrate) EUB0002477a PDE2A; format: functional; design: mode of action Inhibitor, recommended concentration 1 uM
[8] = target: T2, 3',5'-cyclic-AMP phosphodiesterase 4D (Homo sapiens, UniProt Q08499); assay: Affinity Biochemical interaction: (inhibition of enzyme activity with [3H]cGMP or [3H]cAMP as the substrate) EUB0002477a PDE4D; format: functional; design: mode of action Inhibitor, recommended concentration 1 uM
T2 sequence (Q08499 whole entry): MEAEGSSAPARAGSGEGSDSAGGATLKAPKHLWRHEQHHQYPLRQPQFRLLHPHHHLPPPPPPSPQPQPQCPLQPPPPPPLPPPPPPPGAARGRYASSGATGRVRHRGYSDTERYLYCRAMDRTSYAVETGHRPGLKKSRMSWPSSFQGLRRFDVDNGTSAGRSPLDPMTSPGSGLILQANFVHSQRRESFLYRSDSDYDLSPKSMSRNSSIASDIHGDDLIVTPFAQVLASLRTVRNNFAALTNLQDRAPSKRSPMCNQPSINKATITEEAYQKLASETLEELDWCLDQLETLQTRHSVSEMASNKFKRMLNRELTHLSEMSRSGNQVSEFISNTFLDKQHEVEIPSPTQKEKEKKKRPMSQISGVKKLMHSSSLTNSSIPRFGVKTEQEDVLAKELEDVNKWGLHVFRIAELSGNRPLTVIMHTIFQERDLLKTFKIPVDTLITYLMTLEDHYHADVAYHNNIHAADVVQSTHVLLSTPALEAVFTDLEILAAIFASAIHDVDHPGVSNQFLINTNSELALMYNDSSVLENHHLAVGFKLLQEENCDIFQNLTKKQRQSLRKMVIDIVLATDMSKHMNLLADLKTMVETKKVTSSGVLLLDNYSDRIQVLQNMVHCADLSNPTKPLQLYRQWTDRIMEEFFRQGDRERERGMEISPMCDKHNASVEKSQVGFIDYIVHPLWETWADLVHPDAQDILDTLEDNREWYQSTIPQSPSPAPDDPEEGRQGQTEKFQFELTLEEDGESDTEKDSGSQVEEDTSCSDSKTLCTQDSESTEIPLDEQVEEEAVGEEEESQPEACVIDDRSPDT

[9] = target: High affinity 3',5'-cyclic-AMP phosphodiesterase 7A (Homo sapiens, UniProt Q13946); assay: Affinity Biochemical interaction: (inhibition of enzyme activity with [3H]cGMP or [3H]cAMP as the substrate) EUB0002477a PDE7A; format: functional; design: mode of action Inhibitor, recommended concentration 1 uM
[10] = target: High affinity cAMP-specific and IBMX-insensitive 3',5'-cyclic phosphodiesterase 8A (Homo sapiens, UniProt O60658); assay: Affinity Biochemical interaction: (inhibition of enzyme activity with [3H]cGMP or [3H]cAMP as the substrate) EUB0002477a PDE8A; format: functional; design: mode of action Inhibitor, recommended concentration 1 uM
[11] = target: T3, cAMP and cAMP-inhibited cGMP 3',5'-cyclic phosphodiesterase 10A (Homo sapiens, UniProt Q9Y233); assay: Affinity Biochemical interaction: (inhibition of enzyme activity with [3H]cGMP or [3H]cAMP as the substrate) EUB0002477a PDE10A; format: functional; design: mode of action Inhibitor, recommended concentration 1 uM
T3 sequence (Q9Y233 whole entry): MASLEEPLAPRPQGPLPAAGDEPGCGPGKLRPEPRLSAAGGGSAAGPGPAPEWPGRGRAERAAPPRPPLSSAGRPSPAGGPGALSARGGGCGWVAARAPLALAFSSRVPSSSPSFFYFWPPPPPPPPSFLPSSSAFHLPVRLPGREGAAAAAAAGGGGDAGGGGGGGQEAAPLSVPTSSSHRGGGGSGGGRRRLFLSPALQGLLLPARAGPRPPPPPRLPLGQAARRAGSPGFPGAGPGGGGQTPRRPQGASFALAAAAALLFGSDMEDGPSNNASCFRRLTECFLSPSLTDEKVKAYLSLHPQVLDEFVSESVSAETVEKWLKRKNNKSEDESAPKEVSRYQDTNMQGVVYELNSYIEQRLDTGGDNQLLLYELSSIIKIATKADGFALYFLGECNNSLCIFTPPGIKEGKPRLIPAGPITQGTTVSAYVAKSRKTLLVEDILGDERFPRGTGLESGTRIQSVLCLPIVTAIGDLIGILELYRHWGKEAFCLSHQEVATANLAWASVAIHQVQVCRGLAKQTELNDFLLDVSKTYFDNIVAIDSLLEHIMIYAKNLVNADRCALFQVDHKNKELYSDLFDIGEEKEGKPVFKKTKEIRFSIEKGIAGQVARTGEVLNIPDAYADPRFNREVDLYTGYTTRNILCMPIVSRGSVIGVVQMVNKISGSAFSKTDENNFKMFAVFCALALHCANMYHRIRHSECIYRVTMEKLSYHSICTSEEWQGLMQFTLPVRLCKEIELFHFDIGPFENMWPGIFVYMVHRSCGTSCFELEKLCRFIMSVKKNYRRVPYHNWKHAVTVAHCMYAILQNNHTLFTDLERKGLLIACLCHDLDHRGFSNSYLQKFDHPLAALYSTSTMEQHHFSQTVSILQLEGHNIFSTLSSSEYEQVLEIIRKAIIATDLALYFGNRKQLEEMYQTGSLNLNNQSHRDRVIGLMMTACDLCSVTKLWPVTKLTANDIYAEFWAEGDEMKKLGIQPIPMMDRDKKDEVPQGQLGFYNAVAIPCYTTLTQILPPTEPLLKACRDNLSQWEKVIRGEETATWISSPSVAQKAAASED

[12] = target: T4, Breast cancer type 1 susceptibility protein (Homo sapiens, UniProt P38398); assay: Affinity Biochemical interaction: (Fluorescence polarisation assay) EUB0002518a BRCA1; format: functional; design: mode of action Inhibitor, recommended concentration 1 uM
[13] = target: T4, Breast cancer type 1 susceptibility protein; assay: Affinity Biochemical interaction: (ITC) EUB0002518a BRCA1; design: mode of action Inhibitor, recommended concentration 1 uM
Histone deacetylase 1 = Histone deacetylase 1 (Homo sapiens, UniProt Q13547); assay: Affinity Biochemical interaction: (fluorometric activity assay) EUB0002519a HDAC1; format: functional; design: mode of action Inhibitor, recommended concentration 1 uM
Histone deacetylase 2 = Histone deacetylase 2 (Homo sapiens, UniProt Q92769); assay: Affinity Biochemical interaction: (fluorometric activity assay) EUB0002519a HDAC2; format: functional; design: mode of action Inhibitor, recommended concentration 1 uM
Sequence of Histone deacetylase 2 (Q92769 whole entry): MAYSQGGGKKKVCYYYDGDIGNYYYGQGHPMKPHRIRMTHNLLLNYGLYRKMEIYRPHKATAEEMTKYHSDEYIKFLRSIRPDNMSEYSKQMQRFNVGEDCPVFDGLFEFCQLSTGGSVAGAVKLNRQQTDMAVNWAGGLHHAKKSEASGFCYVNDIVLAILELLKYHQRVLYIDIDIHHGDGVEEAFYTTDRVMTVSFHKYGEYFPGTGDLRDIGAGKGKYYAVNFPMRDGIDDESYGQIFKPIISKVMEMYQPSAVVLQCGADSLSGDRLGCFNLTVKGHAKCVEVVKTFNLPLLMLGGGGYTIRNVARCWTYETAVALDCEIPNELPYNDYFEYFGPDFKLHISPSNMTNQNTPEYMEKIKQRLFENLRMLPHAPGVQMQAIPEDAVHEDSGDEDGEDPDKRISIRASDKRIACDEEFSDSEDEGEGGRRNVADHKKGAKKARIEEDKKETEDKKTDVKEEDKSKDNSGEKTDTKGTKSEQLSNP

[14] = target: Synaptic vesicular amine transporter (Homo sapiens, UniProt Q05940); assay: Affinity Biochemical interaction: (Inhibition of radiolabelled [3H]dopamine uptake) EUB0002590aCl SLC18A2; design: mode of action Inhibitor, recommended concentration 1 uM
[15] = target: T3, cAMP and cAMP-inhibited cGMP 3',5'-cyclic phosphodiesterase 10A; assay: Affinity Biochemical interaction: (inhibition of enzyme activity in cleaving radiolabelled substrate [3H]cAMP) EUB0002682aCl PDE10A; format: functional; design: mode of action Inhibitor, recommended concentration 1 uM
[16] = target: T5, 3',5'-cyclic-AMP phosphodiesterase 4A (Homo sapiens, UniProt P27815); assay: Affinity Biochemical interaction: (fluorescence polarisation assay, inhibition of enzyme activity) EUB0002577a PDE4A; format: functional; design: mode of action Inhibitor, recommended concentration 1 uM
T5 sequence (P27815 whole entry): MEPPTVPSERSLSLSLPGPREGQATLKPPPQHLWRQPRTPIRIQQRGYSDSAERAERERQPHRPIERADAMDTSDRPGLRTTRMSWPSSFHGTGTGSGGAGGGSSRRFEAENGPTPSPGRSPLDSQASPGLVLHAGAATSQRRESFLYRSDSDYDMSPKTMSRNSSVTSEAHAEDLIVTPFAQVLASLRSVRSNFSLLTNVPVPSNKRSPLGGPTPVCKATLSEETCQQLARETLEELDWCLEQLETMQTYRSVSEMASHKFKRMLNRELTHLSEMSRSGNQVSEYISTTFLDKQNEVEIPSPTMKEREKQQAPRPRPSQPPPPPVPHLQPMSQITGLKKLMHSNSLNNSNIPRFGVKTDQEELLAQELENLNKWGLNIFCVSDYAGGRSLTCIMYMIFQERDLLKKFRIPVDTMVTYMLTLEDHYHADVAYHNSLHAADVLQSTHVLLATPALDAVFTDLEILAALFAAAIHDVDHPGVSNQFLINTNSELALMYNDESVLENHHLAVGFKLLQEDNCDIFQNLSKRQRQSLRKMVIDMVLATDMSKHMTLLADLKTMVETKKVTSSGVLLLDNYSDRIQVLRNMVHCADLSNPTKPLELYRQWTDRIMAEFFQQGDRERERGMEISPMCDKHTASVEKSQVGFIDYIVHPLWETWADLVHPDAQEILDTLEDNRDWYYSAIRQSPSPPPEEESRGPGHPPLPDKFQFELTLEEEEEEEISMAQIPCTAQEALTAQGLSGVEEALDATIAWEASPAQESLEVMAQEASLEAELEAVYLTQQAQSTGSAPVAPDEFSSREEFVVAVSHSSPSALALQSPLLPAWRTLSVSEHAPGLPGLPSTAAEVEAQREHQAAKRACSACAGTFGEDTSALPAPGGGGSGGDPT

[17] = target: T6, 3',5'-cyclic-AMP phosphodiesterase 4C (Homo sapiens, UniProt Q08493); assay: Affinity Biochemical interaction: (fluorescence polarisation assay, inhibition of enzyme activity) EUB0002577a PDE4C; format: functional; design: mode of action Inhibitor, recommended concentration 1 uM
T6 sequence (Q08493 whole entry): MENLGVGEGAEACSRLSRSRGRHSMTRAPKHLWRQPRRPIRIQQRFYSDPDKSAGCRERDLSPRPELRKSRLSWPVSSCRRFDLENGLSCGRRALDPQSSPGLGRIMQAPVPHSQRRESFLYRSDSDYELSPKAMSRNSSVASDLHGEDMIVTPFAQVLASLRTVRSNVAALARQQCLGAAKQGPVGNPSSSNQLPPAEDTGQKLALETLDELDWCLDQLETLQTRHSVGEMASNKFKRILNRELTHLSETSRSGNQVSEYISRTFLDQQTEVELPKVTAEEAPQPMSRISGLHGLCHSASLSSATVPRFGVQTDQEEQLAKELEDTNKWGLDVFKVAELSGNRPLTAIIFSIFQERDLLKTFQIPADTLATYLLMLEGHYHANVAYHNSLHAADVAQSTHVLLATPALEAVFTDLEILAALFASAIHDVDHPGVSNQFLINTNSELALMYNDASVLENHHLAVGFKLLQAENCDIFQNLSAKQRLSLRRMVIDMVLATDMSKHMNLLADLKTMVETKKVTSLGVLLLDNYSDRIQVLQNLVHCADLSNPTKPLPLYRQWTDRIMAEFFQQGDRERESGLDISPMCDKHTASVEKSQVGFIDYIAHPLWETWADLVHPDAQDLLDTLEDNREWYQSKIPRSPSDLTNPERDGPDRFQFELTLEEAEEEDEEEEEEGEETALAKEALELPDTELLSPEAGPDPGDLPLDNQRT

[18] = target: Protein-arginine deiminase type-4 (Homo sapiens, UniProt Q9UM07); assay: Affinity Biochemical interaction: (enzyme inhibition, detection of citrullated histone H3 by either immunoblot with LiC or quantitation or an ELISA-based assay using anti-citrullated histone H3 rabbit polyclonal antibody) EUB0002517a PADI4; format: functional; design: mode of action Inhibitor, recommended concentration 1 uM
[19] = target: T7, Lysine-specific demethylase 4A (Homo sapiens, UniProt O75164); assay: Affinity Biochemical interaction: (AlphaScreen) EUB0002543a KDM4A; format: functional; design: mode of action Inhibitor, recommended concentration 1 uM
T7 sequence (O75164 whole entry): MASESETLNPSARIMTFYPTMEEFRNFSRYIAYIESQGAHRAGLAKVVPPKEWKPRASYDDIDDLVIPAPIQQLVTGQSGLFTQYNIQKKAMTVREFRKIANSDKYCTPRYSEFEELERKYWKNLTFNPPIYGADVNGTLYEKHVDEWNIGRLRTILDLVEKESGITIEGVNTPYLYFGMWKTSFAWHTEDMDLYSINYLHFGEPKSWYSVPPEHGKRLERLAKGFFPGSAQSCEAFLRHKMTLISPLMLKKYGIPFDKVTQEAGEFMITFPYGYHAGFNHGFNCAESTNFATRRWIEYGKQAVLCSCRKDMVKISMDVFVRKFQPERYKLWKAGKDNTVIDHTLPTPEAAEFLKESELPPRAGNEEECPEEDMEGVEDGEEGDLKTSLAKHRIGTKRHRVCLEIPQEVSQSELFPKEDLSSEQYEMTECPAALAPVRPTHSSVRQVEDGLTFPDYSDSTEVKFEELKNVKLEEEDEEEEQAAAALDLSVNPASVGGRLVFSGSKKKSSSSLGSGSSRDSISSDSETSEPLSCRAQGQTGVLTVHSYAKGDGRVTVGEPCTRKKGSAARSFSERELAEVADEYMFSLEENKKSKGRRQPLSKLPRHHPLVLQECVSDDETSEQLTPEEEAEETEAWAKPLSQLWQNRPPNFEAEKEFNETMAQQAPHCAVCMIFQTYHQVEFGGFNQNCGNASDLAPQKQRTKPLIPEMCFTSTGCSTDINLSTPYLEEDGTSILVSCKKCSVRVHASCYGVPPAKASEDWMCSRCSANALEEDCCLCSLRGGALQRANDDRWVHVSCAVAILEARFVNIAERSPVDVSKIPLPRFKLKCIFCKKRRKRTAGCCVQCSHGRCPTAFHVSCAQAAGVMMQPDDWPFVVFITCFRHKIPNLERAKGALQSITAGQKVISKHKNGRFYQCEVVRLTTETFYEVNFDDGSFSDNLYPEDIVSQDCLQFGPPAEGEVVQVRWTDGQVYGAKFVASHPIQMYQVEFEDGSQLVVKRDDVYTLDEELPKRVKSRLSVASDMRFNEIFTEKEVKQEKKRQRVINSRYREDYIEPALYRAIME

[20] = target: T7, Lysine-specific demethylase 4A; assay: Affinity Biochemical interaction: (Biolayer interferometry) EUB0002543a KDM4A; design: mode of action Inhibitor, recommended concentration 1 uM
[21] = target: Lysine-specific demethylase 4B (Homo sapiens, UniProt O94953); assay: Affinity Biochemical interaction: (AlphaScreen) EUB0002543a KDM4B; format: functional; design: mode of action Inhibitor, recommended concentration 1 uM
[22] = target: Lysine-specific demethylase 4C (Homo sapiens, UniProt Q9H3R0); assay: Affinity Biochemical interaction: (AlphaScreen) EUB0002543a KDM4C; format: functional; design: mode of action Inhibitor, recommended concentration 1 uM
[23] = target: Alpha-ketoglutarate-dependent dioxygenase alkB homolog 3 (Homo sapiens, UniProt Q96Q83)
[24] = target: T5, 3',5'-cyclic-AMP phosphodiesterase 4A; assay: Affinity Biochemical interaction: (radioligand binding assay, inhibition of [3H]cAMP or [3H]cGMP cleavage) EUB0002534a PDE4A; design: mode of action Inhibitor, recommended concentration 1 uM
[25] = target: 3',5'-cyclic-AMP phosphodiesterase 4B (Homo sapiens, UniProt Q07343); assay: Affinity Biochemical interaction: (radioligand binding assay, inhibition of [3H]cAMP or [3H]cGMP cleavage) EUB0002534a PDE4B; design: mode of action Inhibitor, recommended concentration 1 uM
[26] = target: T6, 3',5'-cyclic-AMP phosphodiesterase 4C; assay: Affinity Biochemical interaction: (radioligand binding assay, inhibition of [3H]cAMP or [3H]cGMP cleavage) EUB0002534a PDE4C; design: mode of action Inhibitor, recommended concentration 1 uM
[27] = target: T2, 3',5'-cyclic-AMP phosphodiesterase 4D; assay: Affinity Biochemical interaction: (radioligand binding assay, inhibition of [3H]cAMP or [3H]cGMP cleavage) EUB0002534a PDE4D; design: mode of action Inhibitor, recommended concentration 1 uM

Structure (SMILES): C#CCNC(=O)[C@H](CO)NC(=O)[C@H](CCCCN(CC)CC)NC(=O)[C@H](NC(=O)[C@@H](NC(=O)c1ccc(Oc2ccccc2)cc1)C1CCCC1)[C@@H](C)CC ({Benzoyl(4-OPh)}-[Gly(cPent)][d(aIle)][Lys(Et2)]S-{NH(propargyl)})
Kd [3]: 800 nM
Kd [4]: 700 nM
Kd [5]: 500 nM

Structure (SMILES): C[C@H](Nc1nc2c(cnn2C2CCCC2)c(=O)[nH]1)c1ccc(Cl)cc1
IC50 [7]: 2.4 nM
IC50 [8]: 1.3 nM
IC50 [9]: 2.5 nM
IC50 [10]: 1 nM
IC50 [11]: 2.3 nM

Structure (SMILES): O=C(CNC(=O)[C@H](COP(=O)(O)O)NC(=O)CCc1c[nH]c2ccccc12)NCCCCc1ccccc1
IC50 [12]: 310 nM
Kd [13]: 300 nM

Structure (SMILES): COc1ccc(CC[C@H]2CCC[C@@H](CCc3ccc(OC)cc3)N2C[C@@H](O)CO)cc1
Ki [14]: 29 nM

Structure (SMILES): COc1cc(C(=O)N2C[C@H](N)CC[C@@H]2C)cc2nc(-c3cc4cccnc4n3CC3CC3)n(C)c12
IC50 [18]: 98 nM

Structure (SMILES): CC(C)[C@@H]1NC(=O)[C@H](Cc2ccc(O)cc2)NC(=O)[C@@H](CC(=O)O)NC(=O)S[C@@H](C(=O)O)NC(=O)[C@H]([C@H](C)O)NC(=O)[C@H](Cc2ccc(O)cc2)NC(=O)[C@H](Cc2c[nH]c3ccccc23)NC(=O)[C@H](CCCNC(=N)N)NC(=O)[C@H](Cc2c[nH]c3ccccc23)NC(=O)[C@H](C)NC(=O)[C@H](CO)NC(=O)[C@H](CCCNC(=N)N)NC(=O)[C@H]([C@H](C)O)NC(=O)[C@H](CC(N)=O)NC(=O)[C@H](Cc2ccc(O)cc2)NC1=O
IC50 [19]: 42 nM
Kd [20]: 29.8 nM
IC50 [21]: 33 nM
IC50 [22]: 39 nM

Structure (SMILES): Cc1ccc2[nH]c(-n3nc(C)c(Cc4ccccc4)c3O)nc2c1
IC50 [23]: 670 nM

Structure (SMILES): Nc1cc2c3c(c1)C(c1ccccc1)=N[C@@H](NC(=O)c1cccnc1)C(=O)N3CC2
IC50 [24]: 290 nM
IC50 [25]: 80 nM
IC50 [26]: 560 nM
IC50 [27]: 90 nM

Second part, the compound after the results:

IC50 [1]: 2.7 nM
Structure (SMILES): Cc1nnn(C)c1-c1cnc2c3cc4cnn(C)c4cc3n([C@H](c3ccccc3)C3CCOCC3)c2c1

IC50 [2]: 97.6 nM
Structure (SMILES): Cn1c(OC[C@H]2CC[C@H](C(F)(F)F)CC2)nn2c(C3CCOCC3)ncc2c1=O

IC50 [6]: 600 nM
Structure (SMILES): Cc1cc(C(=O)CN2CCCCC2)c(C)n1-c1ccc(Cl)cc1

IC50 (Histone deacetylase 1): 40 nM
IC50 (Histone deacetylase 2): 100 nM
Structure (SMILES): Nc1ccc(-c2cccs2)cc1NC(=O)c1ccc(NC=O)cc1

IC50 [15]: 2.8 nM
Structure (SMILES): Cc1ccc2c(c1)nc(/C=C/c1cccc3cccnc13)n2-c1cccc(OCCCN2CCN(C)CC2)c1

IC50 [16]: 113 nM
IC50 [17]: 164 nM
Structure (SMILES): CC(C)NC(=O)c1ccc(OC(F)F)c(OCC2CC2)c1

Reference: ChEMBL document CHEMBL5723035, “Affinity Biochemical Literature for EUbOPEN Chemogenomic Library” (2024)
